Test results taken from patent US12384753B2, “17-beta-hydroxysteroid dehydrogenase type 13 inhibitors and methods of use thereof” (Enanta Pharmaceuticals, Inc., priority 2021, dated 2025).

Each molecule was assayed against Recombinant human HSD17B13 (Homo sapiens (Human), UniProt Q7Z5P4) (assay: HSD17B13 rapid-fire mass spectrometry assay (RF/MS assay)). Settings: inhibition of HSD17B13; LTB4 10 μM, NAD+ 0.5 mM, RT 3 h; IC50 ranges A-E.
Assay type: biochemical
Procedure, shortened: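 Product 12-oxo-LTB4 and substrate LTB4 quantified by RapidFire triple-quad MS in negative mode, giving percent conversion. Reaction: 80 nM recombinant hHSD17B13, 10 μM LTB4, 0.5 mM NAD+, compound up to 100 μM, pH 7.5, RT, 3 h. Variable-slope fit gave IC50; run in duplicate.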

Recombinant human HSD17B13, sequence (Q7Z5P4 20-300): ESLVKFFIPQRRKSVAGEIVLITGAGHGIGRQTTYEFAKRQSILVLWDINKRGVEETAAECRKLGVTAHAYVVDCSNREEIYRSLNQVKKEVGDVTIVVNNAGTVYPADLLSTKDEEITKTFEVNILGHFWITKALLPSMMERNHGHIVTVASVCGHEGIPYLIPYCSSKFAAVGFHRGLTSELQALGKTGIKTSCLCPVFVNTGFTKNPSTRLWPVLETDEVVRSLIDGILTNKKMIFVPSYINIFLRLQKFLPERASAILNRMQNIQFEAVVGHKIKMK

Row | Compound | IC50 [nM]
1 | COc1ccccc1C#Cc1nc(S(=O)(=O)Nc2ccc(C(=O)O)cc2OC)cs1 [Example 195] | < 100
2 | COc1cc(C(=O)O)ccc1NS(=O)(=O)c1csc(C#Cc2ccccc2Cl)n1 [Example 196] | < 100
3 | COc1cc(C(=O)O)ccc1NS(=O)(=O)c1csc(C#Cc2cccc(Cl)c2)n1 [Example 197] | < 100
4 | COc1cc(C(=O)O)ccc1NS(=O)(=O)c1ccc(-c2ccc(-c3ccccc3)cc2)s1 [Example 198] | 500 to 1000
5 | COc1cc(C(=O)O)ccc1NS(=O)(=O)c1ccc(-c2ccc(-c3ccc(C)cc3)cc2)s1 [Example 199] | 100 to 500
6 | COc1cccc(-c2ccc(S(=O)(=O)Nc3ccc(C(=O)O)cc3OC)s2)c1 [Example 200] | < 100
7 | COc1cc(C(=O)O)ccc1NS(=O)(=O)c1ccc(-c2ccccc2F)s1 [Example 201] | < 100
8 | COc1cc(C(=O)O)ccc1NS(=O)(=O)c1csc(C#Cc2cccc(C(F)(F)F)c2)n1 [Example 202] | < 100
9 | COc1cc(C(=O)O)ccc1NS(=O)(=O)c1csc(C#Cc2cccc(F)c2)n1 [Example 203] | < 100
10 | COc1cc(C(=O)O)ccc1NS(=O)(=O)c1csc(C#Cc2ccccc2F)n1 [Example 204] | < 100
11 | COc1cc(C(=O)O)ccc1NS(=O)(=O)c1ccc(-c2ccc(-c3ccc(F)cc3)cc2)s1 [Example 205] | 100 to 500
12 | COc1ccc(-c2ccc(-c3ccc(S(=O)(=O)Nc4ccc(C(=O)O)cc4OC)s3)cc2)cc1 [Example 206] | 100 to 500
13 | COc1cc(C(=O)O)ccc1NS(=O)(=O)c1ccc(-c2ccc(-c3ccc(O)cc3)cc2)s1 [Example 207] | 500 to 1000
14 | COc1cc(C(=O)O)ccc1NS(=O)(=O)c1ccc(-c2cccc(F)c2)s1 [Example 208] | < 100
15 | COc1cc(C(=O)O)ccc1NS(=O)(=O)c1csc(C#Cc2ccc([N+](=O)[O-])cc2)n1 [Example 209] | 100 to 500
16 | COc1cc(C(=O)O)ccc1NS(=O)(=O)c1csc(C#Cc2ccc(N(C)C)cc2)n1 [Example 210] | < 100
17 | COc1cc(C(=O)O)ccc1NS(=O)(=O)c1ccc(-c2cccc(C)c2)s1 [Example 211] | < 100
18 | COc1cc(C(=O)O)ccc1NS(=O)(=O)c1ccc(-c2cccc(C(F)(F)F)c2)s1 [Example 212] | < 100
19 | COc1cc(C(=O)O)ccc1NS(=O)(=O)c1ccc(-c2ccccc2C(F)(F)F)s1 [Example 213] | 100 to 500
20 | COc1cc(C(=O)O)ccc1NS(=O)(=O)c1csc(C#CC2CC2)n1 [Example 214] | < 100
21 | COc1cc(C(=O)O)ccc1NS(=O)(=O)c1csc(C#Cc2cccnc2)n1 [Example 215] | 100 to 500
22 | COc1cc(C(=O)O)ccc1NS(=O)(=O)c1csc(C#Cc2ccncc2)n1 [Example 216] | 100 to 500
23 | COc1cc(C(=O)O)ccc1NS(=O)(=O)c1csc(C#CC2CCCC2)n1 [Example 217] | < 100
24 | COc1cc(C(=O)O)ccc1NS(=O)(=O)c1csc(C#Cc2cccs2)n1 [Example 218] | < 100
25 | COc1cc(C(=O)O)ccc1NS(=O)(=O)c1ccc(-c2ccc(-c3ccc(OC(F)(F)F)cc3)cc2)s1 [Example 219] | 100 to 500

Row | Compound | IC50 [nM]
26 | COc1cc(C(=O)O)c(F)cc1NS(=O)(=O)c1csc(C#Cc2ccc(C)cc2)n1 [Example 220] | < 100
27 | COc1ccc(C#Cc2nc(S(=O)(=O)Nc3cc(F)c(C(=O)O)cc3OC)cs2)cc1 [Example 221] | < 100
28 | COc1cc(C(=O)O)c(F)cc1NS(=O)(=O)c1csc(C#Cc2ccc(F)cc2)n1 [Example 222] | < 100
29 | COc1cc(C(=O)O)ccc1NS(=O)(=O)c1csc(C#Cc2ccc(C#N)cc2)n1 [Example 223] | 1000 to 100000
30 | COc1cc(C(=O)O)ccc1NS(=O)(=O)c1csc(C#Cc2ccc(C(N)=O)cc2)n1 [Example 224] | 1000 to 100000
31 | COc1cc(C(=O)O)ccc1NS(=O)(=O)c1csc(C#Cc2ccccc2C(F)(F)F)n1 [Example 225] | < 100
32 | COc1cc(C(=O)O)ccc1NS(=O)(=O)c1csc(C#Cc2ccc(OC(F)(F)F)cc2)n1 [Example 226] | 100 to 500
33 | COc1cc(C(=O)O)c(F)cc1NS(=O)(=O)c1csc(C#Cc2ccc(C(F)(F)F)cc2)n1 [Example 227] | < 100
34 | COc1cc(C(=O)O)c(F)cc1NS(=O)(=O)c1csc(C#Cc2ccc(Cl)cc2)n1 [Example 228] | < 100
35 | COc1cc(C(=O)O)c(F)cc1NS(=O)(=O)c1csc(C#Cc2ccc(O)cc2)n1 [Example 229] | < 100
36 | COc1cc(C(=O)O)c(F)cc1NS(=O)(=O)c1ccc(-c2ccc(C(F)(F)F)cc2)s1 [Example 230] | 100 to 500
37 | COc1cc(C(=O)O)c(F)cc1NS(=O)(=O)c1ccc(-c2ccc(F)cc2)s1 [Example 231] | < 100
38 | COc1cc(C(=O)O)c(F)cc1NS(=O)(=O)c1ccc(-c2ccc(Cl)cc2)s1 [Example 232] | < 100
39 | COc1cc(C(=O)O)c(F)cc1NS(=O)(=O)c1ccc(-c2ccc(C)cc2)s1 [Example 233] | 100 to 500
40 | COc1cc(C(=O)O)c(F)cc1NS(=O)(=O)c1csc(C#Cc2cccc(Cl)c2)n1 [Example 234] | 100 to 500
41 | COc1cc(C(=O)O)c(F)cc1NS(=O)(=O)c1csc(C#Cc2ccccc2Cl)n1 [Example 235] | < 100
42 | COc1cc(C(=O)O)c(F)cc1NS(=O)(=O)c1csc(C#Cc2cccc(C)c2)n1 [Example 236] | < 100
43 | COc1cc(C(=O)O)c(F)cc1NS(=O)(=O)c1csc(C#Cc2ccccc2C)n1 [Example 237] | 100 to 500
44 | COc1cc(C(=O)O)ccc1NS(=O)(=O)c1csc(C#Cc2ccccc2OC(F)(F)F)n1 [Example 238] | < 100
45 | COc1cc(C(=O)O)ccc1NS(=O)(=O)c1csc(C#Cc2cccc(OC(F)(F)F)c2)n1 [Example 239] | < 100
46 | COc1cc(C(=O)O)c(F)cc1NS(=O)(=O)c1csc(C#Cc2ccc(C(C)(C)C)cc2)n1 [Example 240] | < 100
47 | COc1cc(C(=O)O)c(F)cc1NS(=O)(=O)c1csc(C#Cc2ccc(C(C)C)cc2)n1 [Example 241] | < 100
48 | COc1cccc(C#Cc2nc(S(=O)(=O)Nc3cc(F)c(C(=O)O)cc3OC)cs2)c1 [Example 242] | < 100
49 | COc1ccccc1C#Cc1nc(S(=O)(=O)Nc2cc(F)c(C(=O)O)cc2OC)cs1 [Example 243] | < 100
50 | COc1cccc(C#Cc2nc(S(=O)(=O)Nc3ccc(C(=O)O)cc3OC)cs2)n1 [Example 244] | 500 to 1000

Row | Compound | IC50 [nM]
51 | COc1ccnc(C#Cc2nc(S(=O)(=O)Nc3ccc(C(=O)O)cc3OC)cs2)c1 [Example 245] | 1000 to 100000
52 | COc1cc(C#Cc2nc(S(=O)(=O)Nc3ccc(C(=O)O)cc3OC)cs2)ccn1 [Example 246] | 500 to 1000
53 | COc1cc(C(=O)O)ccc1NS(=O)(=O)c1csc(C#Cc2cc(C(F)(F)F)[nH]c(=O)c2)n1 [Example 247, 3-methoxy-4-((2-((2-oxo-6-(trifluoromethyl)-1,2-dihydropyridin-4-yl)ethynyl)thiazole)-4-sulfonamido)benzoic acid] | 100 to 500
54 | COc1cncc(C#Cc2nc(S(=O)(=O)Nc3ccc(C(=O)O)cc3OC)cs2)c1 [Example 248] | 100 to 500
55 | COc1cc(C(=O)O)ccc1NS(=O)(=O)c1ccc(-c2cccc(-c3ccccc3)c2)s1 [Example 249, 4-((5-([1,1′-biphenyl]-3-yl)thiophene)-2-sulfonamido)-3-methoxybenzoic acid] | 100 to 500
56 | COc1cc(C(=O)O)ccc1NS(=O)(=O)c1ccc(-c2cccc(-c3ccc(C)cc3)c2)s1 [Example 250, 3-methoxy-4-((5-(4′-methyl-[1,1′-biphenyl]-3-yl)thiophene)-2-sulfonamido)benzoic acid] | 100 to 500
57 | COc1cc(C(=O)O)ccc1NS(=O)(=O)c1ccc(-c2cccc(-c3ccc(F)cc3)c2)s1 [Example 251] | 100 to 500
58 | COc1cc(C(=O)O)ccc1NS(=O)(=O)c1ccc(-c2cccc(-c3ccc(C(F)(F)F)cc3)c2)s1 [Example 252] | 500 to 1000
59 | COc1ccc(-c2cccc(-c3ccc(S(=O)(=O)Nc4ccc(C(=O)O)cc4OC)s3)c2)cc1 [Example 253] | 100 to 500
60 | COc1cc(C(=O)O)ccc1NS(=O)(=O)c1ccc(-c2cccc(-c3ccc(OC(F)(F)F)cc3)c2)s1 [Example 254] | 500 to 1000
61 | COc1cc(C(=O)O)ccc1NS(=O)(=O)c1csc(N2Cc3ccccc3C2)n1 [Example 255] | 1000 to 100000
62 | COc1cc(C(=O)O)ccc1NS(=O)(=O)c1csc(N2CCC(c3ccccc3)CC2)n1 [Example 256] | 1000 to 100000
63 | COc1cc(C(=O)O)ccc1NS(=O)(=O)c1csc(N2CCN(c3ccccc3)CC2)n1 [Example 257] | 500 to 1000
64 | COc1cc(C(=O)O)ccc1NS(=O)(=O)c1csc(N2CCCC(Cc3ccccc3)C2)n1 (centres unmarked) [Example 258] | 500 to 1000
65 | COc1cc(C(=O)O)ccc1NS(=O)(=O)c1csc(N2CCC(c3ccccc3)C2)n1 (centres unmarked) [Example 259] | 1000 to 100000
66 | COc1cc(C(=O)O)ccc1NS(=O)(=O)c1csc(N2CCC(Cc3ccccc3)CC2)n1 [Example 260] | 1000 to 100000
67 | COc1cc(C(=O)O)ccc1NS(=O)(=O)c1csc(N2CCCC(Nc3ccccc3)C2)n1 (centres unmarked) [Example 261] | 500 to 1000
68 | COc1cc(C(=O)O)ccc1NS(=O)(=O)c1csc(N2CCC(c3ccccn3)CC2)n1 [Example 262] | 1000 to 100000
69 | COc1cc(C(=O)O)ccc1NS(=O)(=O)c1csc(N2CCC(c3nnn[nH]3)CC2)n1 [Example 263] | 1000 to 100000
70 | COc1cc(C(=O)O)ccc1NS(=O)(=O)c1csc(N2CCN(c3nccs3)CC2)n1 [Example 264] | 1000 to 100000
71 | COc1cc(C(=O)O)ccc1NS(=O)(=O)c1csc(N2CCN(C3CCCC3)CC2)n1 [Example 265] | 1000 to 100000
72 | COc1cc(C(=O)O)ccc1NS(=O)(=O)c1csc(N2CCN(c3ccc(OC(F)(F)F)cc3)C(=O)C2)n1 [Example 266] | 1000 to 100000
73 | COc1cc(C(=O)O)ccc1NS(=O)(=O)c1csc(N2CC(c3ccccc3)C2)n1 [Example 267] | 1000 to 100000
74 | COc1cc(C(=O)O)ccc1NS(=O)(=O)c1csc(N2CC=C(c3ccccc3)C2)n1 [Example 268] | 100 to 500
